Test results reported in US9758459B2, “Allosteric modulators of factor XIa as anticoagulant agents” (VIRGINIA COMMONWEALTH UNIVERSITY, priority 2012, dated 2017).
“And” between values parts separate entries of the source, which are not always exact repeats. Equal entries are not always repeated. Where two headings read alike, the source gives them in different places.

How the values were obtained:
Type in all cases: biochemical
human factor XIa = target: T1, human factor XIa (Homo sapiens, UniProt P03951); assay: Direct inhibition of factor XIa, chromogenic substrate S-2366 hydrolysis assay
T1 construct: purchased Haematologic Technologies (Essex Junction, Vt.); host or cells: human plasma
Experimental: Solvent A consisted of 25 mM n-hexylamine in water containing 0.1% (v/v) formic acid, while solvent B consisted of 25 mM n-hexylamine in acetonitrile-water mixture (3:1 v/v) containing 0.1% (v/v) formic acid. […] The sample was first monitored for absorbance in the range of 190-400 nm and then directly introduced into the mass spectrometer. ESI-MS detection was performed in positive ion mode for which the capillary voltage was 4 kV, cone voltage was 20 V, desolvation temperature was 350° C. and nitrogen gas flow was maintained at 650 L/hr. Mass scans were collected in the range of 1000-2048 amu within 0.25 s and several of these added to enhanced signal-to-noise ratio. Direct Inhibition of Factor XIa. […] After 10 min incubation, 5 μL factor XIa substrate (345 μM) was rapidly added and the residual FXIa activity was measured from the initial rate of increase in absorbance at 405 nm. […] Relative residual FXIa activity at each concentration of the inhibitor was calculated from the ratio of FXIa activity in the presence and absence of the inhibitor. Logistic equation 1 was used to fit the dose-dependence of residual protease activity to obtain the potency (IC50) and efficacy (ΔY) of inhibition.
Direct Inhibition of Factor XIa by Sulfated QAOs was performed as described in Example 1.
The ability of the sulfated inositol analogs to inhibit factor XIa was studied using the in vitro assay described in Example 1. In this assay, the factor XIa enzyme is anticipated to hydrolyze a particular peptide linkage in the corresponding peptide substrate releasing p-nitroaniline which absorbs at wavelength of 405 nm giving a line slope corresponds to the enzyme activity. The line slope of no inhibitor status is considered as a reference slope and it depends on the relative concentrations of factor XIa enzyme and its substrate. Factor XIa enzyme concentration was decided to get appropriate reference slope of approximately 25-35, whereas the substrate concentration was set to be larger than its affinity to factor XIa enzyme under equilibrium condition, Km. In presence of potential factor XIa inhibitor, the enzyme capacity to hydrolyze the designated peptide linkage in the substrate gets diminished or completely abolished depending on the inhibitor concentration and efficacy. […] Such decreased slope reflects a drop in the catalytic enzyme activity of factor XIa.

FXIa wild type (FXIa-WT) = target: T2, FXIa wild type (FXIa-WT) (Homo sapiens, UniProt P03951); assay: Michaelis-Menten kinetics of S-2366 hydrolysis by full-length factor XIa; conditions: 14S 135 μM, pH 7.4, 37° C.
T2 construct: made in house; host or cells: HEK-293
Experimental: Plasma FIX (500 nM) was incubated with human FXIa (3 nM) in 50 mM Hepes buffer, pH 7.4, containing 125 mM NaCl, 5 mM CaCl2, and 0.1 mg/mL bovine serum albumin at 24° C. […] The primary antibody was goat anti-human FIX polyclonal IgG (Enzyme Research Laboratories, South Bend, Tenn.), and the secondary antibody was horseradish peroxidase-conjugated anti-goat IgG. Detection was by chemiluminescence. […] The inhibition profile was determined over a range of inhibitor concentrations to determine the IC50 of the enzyme-inhibitor complex. The KM of the substrate for its enzyme was used to identify the concentration of the substrate to be used for inhibition studies. […] Active site concentrations for preparations of FXIa were determined by titrations with human antithrombin in an S-2366 cleavage assay. The reaction was monitored using a SpectraMax 340 microtiter plate reader (Molecular Devices Corp., Sunnyvale, Calif.) with a reaction volume of 100 μL and path length of 3 mm. Each assay was performed in triplicate. The concentration of S-2366 was measured using an absorption coefficient of 8,266 M-1cm-1 at λ342 nm, while the free p-nitroaniline concentration was calculated using an absorption coefficient of 9,933 M cm^−1 at λ405 nm. The data was fitted using the standard Michaelis-Menten equation to determine the KM and VMAX. Results

human plasma [1] = assay: Activated partial thromboplastin time (APTT) plasma clotting assay; conditions: human plasma, concentration doubling clotting time
Experimental: (§1) Plasma clotting assays, prothrombin and activated partial thromboplastin time (PT and APTT, respectively), are routinely used to assess the anticoagulation potential of new enzyme inhibitors in an in vitro setting. Whereas PT measures the effect of an inhibitor on the extrinsic pathway of coagulation, APTT measures the effect on the intrinsic pathway.
(§2) Prothrombin Time (PT) and Activated Partial Thromboplastin Time (APTT) were assessed as described in Example 1.

human plasma [2] = assay: Prothrombin time (PT) plasma clotting assay; conditions: for 2 × PT: concentration doubling clotting time
Experimental: as §1, §2

[3] = sulfated QAOs, pH 7.4, 37° C., read-out: IC50 (converted)

T1 sequence (P03951 19-387 limits assumed): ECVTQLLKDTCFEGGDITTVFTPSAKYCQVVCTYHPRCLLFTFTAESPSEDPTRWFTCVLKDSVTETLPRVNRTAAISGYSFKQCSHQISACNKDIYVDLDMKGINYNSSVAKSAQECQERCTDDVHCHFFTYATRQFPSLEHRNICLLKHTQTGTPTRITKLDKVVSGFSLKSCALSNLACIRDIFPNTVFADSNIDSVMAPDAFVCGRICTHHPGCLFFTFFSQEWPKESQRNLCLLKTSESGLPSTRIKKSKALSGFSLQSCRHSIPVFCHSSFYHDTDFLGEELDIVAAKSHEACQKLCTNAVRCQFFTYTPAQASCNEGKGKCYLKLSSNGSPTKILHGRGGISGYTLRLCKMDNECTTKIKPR
T1 sequence (P03951 388-625 limits assumed): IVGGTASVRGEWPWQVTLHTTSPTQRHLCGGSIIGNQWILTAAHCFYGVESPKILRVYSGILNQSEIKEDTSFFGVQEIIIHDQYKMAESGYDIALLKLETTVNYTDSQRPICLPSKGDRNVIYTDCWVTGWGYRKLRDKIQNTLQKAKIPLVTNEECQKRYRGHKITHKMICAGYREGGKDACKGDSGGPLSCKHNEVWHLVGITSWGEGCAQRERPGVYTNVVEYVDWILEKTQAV
T2 sequence (P03951 19-387 limits assumed): as the sequence (P03951 19-387 limits assumed) above
T2 sequence (P03951 388-625 limits assumed): as the sequence (P03951 388-625 limits assumed) above

## O=c1c2ccccc2nc(-c2cc(OS(=O)(=O)O)cc(OS(=O)(=O)O)c2)n1CCCCn1cc(Cn2c(-c3cc(OS(=O)(=O)O)cc(OS(=O)(=O)O)c3)nc3ccccc3c2=O)nn1 [Inhibitor 20S]
Human factor XIa; [3]
  IC50: > 1000 µM

## COc1cc(-c2nc3ccccc3c(=O)n2CCCCn2cc(COc3cc(-c4oc5cc(OS(=O)(=O)O)cc(OC)c5c(=O)c4OS(=O)(=O)O)ccc3OS(=O)(=O)O)nn2)ccc1OS(=O)(=O)O [Inhibitor 26S]
Human factor XIa; [3]
  IC50: 216 µM

## CC(=O)Oc1cc(OS(=O)(=O)O)cc(-c2nc3ccccc3c(=O)n2Cc2cn(CCCCn3c(-c4cccc(OS(=O)(=O)O)c4)nc4ccccc4c3=O)nn2)c1 [Inhibitor 9S]
Human factor XIa; sulfated QAOs
  ΔY % (efficacy): 96 ± 1%
Human factor XIa; [3]
  IC50: 153 µM

## COc1cc(-c2nc3ccccc3c(=O)n2CCCCn2cc(Cn3c(-c4cccc(OS(=O)(=O)O)c4)nc4ccccc4c3=O)nn2)ccc1OS(=O)(=O)O [Inhibitor 17S]
Human factor XIa; sulfated QAOs
  ΔY % (efficacy): 88 ± 5%
Human factor XIa; [3]
  IC50: 182 ± 1 µM

## COc1cc(-c2nc3ccccc3c(=O)n2CCCCn2cc(Cn3c(-c4ccc(OS(=O)(=O)O)c(OC)c4)nc4ccccc4c3=O)nn2)ccc1OS(=O)(=O)O [Inhibitor 10S]
Human factor XIa; sulfated QAOs
  ΔY % (efficacy): 95 ± 1%
Human factor XIa; [3]
  IC50: 139 ± 1 µM

## O=c1c2ccccc2nc(-c2cccc(OS(=O)(=O)O)c2)n1CCCCn1cc(Cn2c(-c3cccc(OS(=O)(=O)O)c3)nc3ccccc3c2=O)nn1 [Inhibitor 8S]
Human factor XIa; sulfated QAOs
  ΔY % (efficacy): 100 ± 6%

## O=C(OC[C@H]1O[C@@H](OC(=O)c2cc(O)c(O)c(O)c2)[C@H](OC(=O)c2cc(O)c(O)c(O)c2)[C@@H](OC(=O)c2cc(O)c(O)c(O)c2)[C@@H]1OC(=O)c1cc(O)c(O)c(O)c1)c1cc(O)c(O)c(O)c1 [Inhibitor 5, pentagalloyl glucopyranoside, reference compound]
Human factor XIa; highest concentration tested (300 μM)
  inhibition of FXIa proteolytic activity: completely inactive

## O=c1c2ccccc2nc(-c2cccc(OS(=O)(=O)O)c2)n1CCCn1cc(Cn2c(-c3cccc(OS(=O)(=O)O)c3)nc3ccccc3c2=O)nn1 [Inhibitor 11S]
Human factor XIa; sulfated QAOs
  ΔY % (efficacy): 91 ± 4%

## O=c1c2ccccc2nc(-c2cccc(OS(=O)(=O)O)c2)n1CCCCn1cc(Cn2c(-c3ccc(OS(=O)(=O)O)cc3)nc3ccccc3c2=O)nn1 [Inhibitor 14S]
FXIa wild type (FXIa-WT)
  VMAX: 5.1±0.5 mAU/min
Human factor XIa; sulfated QAOs
  ΔY % (efficacy): 103 ± 5%
Human factor XIa; [3]
  IC50: 91 µM

## O=C(OC1C(OC(=O)c2cc(OS(=O)(=O)O)cc(OS(=O)(=O)O)c2)C(OC(=O)c2cc(OS(=O)(=O)O)cc(OS(=O)(=O)O)c2)C(OC(=O)c2cc(OS(=O)(=O)O)cc(OS(=O)(=O)O)c2)C(OC(=O)c2cc(OS(=O)(=O)O)cc(OS(=O)(=O)O)c2)C1OC(=O)c1cc(OS(=O)(=O)O)cc(OS(=O)(=O)O)c1)c1cc(OS(=O)(=O)O)cc(OS(=O)(=O)O)c1 (stereo not drawn) [SMI, Sulfated hexa-substituted myo-inositol]
Human factor XIa; read-out: FXIa-IC50
  IC50: 0.09 µM

## COc1cc(OS(=O)(=O)O)cc2oc(-c3ccc(OS(=O)(=O)O)c(OCc4cn(CCCCn5c(-c6cccc(OS(=O)(=O)O)c6)nc6ccccc6c5=O)nn4)c3)c(OS(=O)(=O)O)c(=O)c12 [Inhibitor 25S]
Human factor XIa; [3]
  IC50: > 1000 µM

## O=c1c2ccccc2nc(-c2ccc(OS(=O)(=O)O)cc2)n1Cc1cn(CCn2cc(Cn3c(-c4ccc(OS(=O)(=O)O)cc4)nc4ccccc4c3=O)nn2)nn1 [Inhibitor 28S]
Human factor XIa; sulfated QAOs
  ΔY % (efficacy): 98 ± 3%

## O=c1c2ccccc2nc(-c2ccc(OS(=O)(=O)O)cc2)n1CCCCCn1nncc1Cn1c(-c2ccc(OS(=O)(=O)O)cc2)nc2ccccc2c1=O [Inhibitor 29S]
Human factor XIa; sulfated QAOs
  ΔY % (efficacy): 94 ± 1%
Human factor XIa; [3]
  IC50: 94 µM and 90 µM

## CC(=O)Oc1cccc(-c2nc3ccccc3c(=O)n2Cc2cn(CCCCn3c(-c4cccc(OS(=O)(=O)O)c4)nc4ccccc4c3=O)nn2)c1 [Inhibitor 7S]
Human factor XIa; pH 7.4, 37° C.
  factor XIa inhibition (in words): inactive
Human factor XIa; [3]
  IC50: > 1000 µM

## CC(=O)Oc1cc(OS(=O)(=O)O)cc(-c2nc3ccccc3c(=O)n2CCCCn2cc(Cn3c(-c4cc(OS(=O)(=O)O)cc(OS(=O)(=O)O)c4)nc4ccccc4c3=O)nn2)c1 [Inhibitor 19S]
Human factor XIa; sulfated QAOs
  ΔY % (efficacy): 91 ± 2%
Human factor XIa; [3]
  IC50: 273 ± 3 µM

## O=c1c2ccccc2nc(-c2ccc(OS(=O)(=O)O)cc2)n1CCCCCn1cc(Cn2c(-c3ccc(OS(=O)(=O)O)cc3)nc3ccccc3c2=O)nn1 [Inhibitor 15S]
Human plasma [1]
  2 × APTT: 1062 µM
Human plasma [2]
  2 × PT: 1684 µM
Human factor XIa; sulfated QAOs
  ΔY % (efficacy): 89 ± 2%
Human factor XIa; [3]
  IC50: 59 µM

## O=c1c2ccccc2nc(-c2ccc(OS(=O)(=O)O)cc2)n1CCCCn1cc(Cn2c(-c3ccc(OS(=O)(=O)O)cc3)nc3ccccc3c2=O)nn1 [Inhibitor 13S]
Human plasma [1]
  2 × APTT: 979 µM
Human plasma [2]
  concentration for 2-fold increase in PT: about 1.12 mM
  2 × PT: 1119 µM
Human factor XIa; sulfated QAOs
  ΔY % (efficacy): 91 ± 2%
Human factor XIa; [3]
  IC50: 82 µM and ~80 µM

## O=c1c2ccccc2nc(-c2ccc(OS(=O)(=O)O)cc2)n1CCCCn1cc(Cn2c(-c3cccc(OS(=O)(=O)O)c3)nc3ccccc3c2=O)nn1 [Inhibitor 12S]
Human factor XIa; sulfated QAOs
  ΔY % (efficacy): 88 ± 3%
Human factor XIa; [3]
  IC50: 159 ± 2 µM

## O=c1c2ccccc2nc(-c2cccc(OS(=O)(=O)O)c2)n1CCCCn1cc(Cn2c(-c3cc(OS(=O)(=O)O)cc(OS(=O)(=O)O)c3)nc3ccccc3c2=O)nn1 [Inhibitor 18S]
Human factor XIa; sulfated QAOs
  ΔY % (efficacy): 93 ± 2%
Human factor XIa; [3]
  IC50: 213 ± 2 µM
